Reference: patent publication US20170291905A1, “ARGININE […] INHIBITORS AND USES THEREOF” (Epizyme, Inc., priority 2014, published 2017)
Where a name gives a salt, the structure may show the parent alone.

Target: T1, PRMT1 (Homo sapiens, UniProt Q99873)
T1 construct: host or cells: RKO cells
Assay: RKO methylation assay, In Cell Western (ICW) for mono-methyl arginine and DNA content
Assay type: cell-based
Details: RKO cells, 72 hours, mono-methyl arginine signal normalised to DRAQ5, percent activation
Text: RKO Methylation Assay RKO adherent cells were purchased from ATCC (American Type Culture Collection), Manassas, Va., USA. DMEM/Glutamax medium, penicillin-streptomycin, heat inactivated fetal bovine serum, 0.05% trypsin and D-PBS were purchased from Life Technologies, Grand Island, N.Y., USA. Odyssey blocking buffer, 800CW goat anti-rabbit IgG (H+L) antibody, and Licor Odyssey infrared scanner were purchased from Licor Biosciences, Lincoln, Nebr., USA. Mono-methyl arginine antibody was purchased from Cell Signaling Technology, Danvers, Mass., USA. Methanol was purchased from VWR, Franklin, Mass., USA. 10% Tween 20 was purchased from KPL, Inc., Gaithersburg, Md., USA. DRAQ5 was purchased from Biostatus Limited, Leicestershire, UK. RKO adherent cells were maintained in growth medium (DMEM/Glutamax medium supplemented with 10% v/v heat inactivated fetal bovine serum and 100 units/mL penicillin-streptomycin) and cultured at 37° C. under 5% CO2. Cell Treatment, in Cell Western (ICW) for Detection of Mono-Methyl Arginine and DNA Content. RKO cells were seeded in assay medium at a concentration of 20,000 cells per mL to a poly-D-lysine coated 384 well culture plate (BD Biosciences 356697) with 50 μL per well. Compound (100 nL) from a 96-well source plate was added directly to 384 well cell plate. Plates were incubated at 37° C., 5% CO2 for 72 hours. After three days of incubation, plates were brought to room temperature outside of the incubator for ten minutes and blotted on paper towels to remove cell media. 50 μL of ice cold 100% methanol was added directly to each well and incubated for 30 min at room temperature. After 30 min, plates were transferred to a Biotek EL406 plate washer and washed 2 times with 100 μL per well of wash buffer (1×PBS). Next 60 μL per well of Odyssey blocking buffer (Odyssey Buffer with 0.1% Tween 20 (v/v)) were added to each plate and incubated 1 hour at room temperature. Blocking buffer was removed and 20 μL per well of primary antibody was added (mono-methyl arginine diluted 1:200 in Odyssey buffer with 0.1% Tween 20 (v/v)) and plates were incubated overnight (16 hours) at 4° C. Plates were washed 5 times with 100 μL per well of wash buffer. Next 20 μL per well of secondary antibody was added (1:200 800CW goat anti-rabbit IgG (H+L) antibody, 1:1000 DRAQ5 (Biostatus limited) in Odyssey buffer with 0.1% Tween 20 (v/v)) and incubated for 1 hour at room temperature. The plates were washed 5 times with 100 μL per well wash buffer then 2 times with 100 μL per well of water. Plates were allowed to dry at room temperature then imaged on the Licor Odyssey machine which measures integrated intensity at 700 nm and 800 nm wavelengths. Both 700 and 800 channels were scanned. […] Each plate included fourteen control wells of DMSO only treatment (minimum activation) as well as fourteen control wells for maximum activation treated with 20 μM of a reference compound. The average of the ratio values for each control type was calculated and used to determine the percent activation for each test well in the plate. Reference compound was serially diluted three-fold in DMSO for a total of nine test concentrations, beginning at 20 μM. Percent activation was determined and EC30 curves were generated using triplicate wells per concentration of compound.

T1 sequence (Q99873 whole entry): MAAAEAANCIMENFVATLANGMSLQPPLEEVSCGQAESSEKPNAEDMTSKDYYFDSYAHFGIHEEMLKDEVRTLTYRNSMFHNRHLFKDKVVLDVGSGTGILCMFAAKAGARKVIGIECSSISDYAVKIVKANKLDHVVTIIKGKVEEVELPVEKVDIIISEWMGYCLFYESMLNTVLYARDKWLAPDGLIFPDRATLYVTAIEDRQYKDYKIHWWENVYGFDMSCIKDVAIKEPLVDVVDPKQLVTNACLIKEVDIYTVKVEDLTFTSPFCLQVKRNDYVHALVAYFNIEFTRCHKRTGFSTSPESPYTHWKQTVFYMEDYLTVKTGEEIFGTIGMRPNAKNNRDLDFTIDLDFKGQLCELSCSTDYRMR

Structure (SMILES) | PRMT1 RGG ICW EC30
CNCCN(C)Cc1c[nH]nc1[C@H]1CC[C@@]2(CCCOC2)CC1 [compound 5, N1-((3-((6r,9r)-2-oxaspiro[5.5]undecan-9-yl)-1H-pyrazol-4-yl)methyl)-N1,N2-dimethylethane-1,2-diamine] | 14.65 nM
CNCCN(C)Cc1c[nH]nc1[C@@H]1CC[C@@H](OCCCOC)C2(CCCC2)C1 (racemic) [compound 26, N1-((3-((7R,10R)-10-(3-methoxypropoxy)spiro[4.5]decan-7-yl)-1H-pyrazol-4-yl)methyl)-N1,N2-dimethylethane-1,2-diamine] | 217.2 nM
CNCCN(C)Cc1c[nH]nc1C1C[C@H](C(=O)NCCOC)C(C)(C)[C@H](C(=O)NCCOC)C1 (stereo partly shown) [compound 13] | >5000 nM
CNCCN(C)Cc1n[nH]cc1[C@H]1CC[C@@]2(CC1)CC(C)(C)CO2 [compound 115] | 20.34 nM
CNCCN(C)Cc1c[nH]nc1[C@H]1CC[C@@H](COCC(F)(F)F)CC1 [compound 23, N1,N2-dimethyl-N1-((3-((1s,4s)-4-((2,2,2-trifluoroethoxy)methyl)cyclohexyl)-1H-pyrazol-4-yl)methyl)ethane-1,2-diamine] | 1721 nM
CCN(C)C(=O)C1CC(c2n[nH]cc2CN(C)CCNC)CC(C(=O)NCCC(C)C)C1(C)C (stereo not shown) [compound 14, N1-ethyl-N3-isopentyl-N1,2,2-trimethyl-5-(4-((methyl(2-(methylamino)ethyl)amino)methyl)-1H-pyrazol-3-yl)cyclohexane-1,3-dicarboxamide] | >5000 nM
CNCCN(C)Cc1n[nH]cc1[C@H]1CC[C@]2(CC1)CC(C)(C)CO2 [compound 116] | 154.5 nM
CNCCN(C)Cc1cn(C)nc1C1CCC(C)(C)[C@@H](C(=O)NCC(C)C)C1 (stereo partly shown) [compound 25] | >5000 nM
CCOCC1(COCC)CC=C(c2n[nH]cc2CN(C)CCNC)CC1 [compound 60] | 44.67 nM
CNCCN(C)Cc1c[nH]nc1[C@H]1CC[C@@]2(CCN(CCC(C)C)C2=O)CC1 [compound 11, (5r,8r)-2-isopentyl-8-(4-((methyl(2-(methylamino)ethyl)amino)methyl)-1H-pyrazol-3-yl)-2-azaspiro[4.5]decan-1-one] | 34.17 nM
CNCCN(C)Cc1c[nH]nc1C1=CCC(CF)(CF)CC1 [compound 15, N-((3-(4,4-bis(fluoromethyl)cyclohex-1-en-1-yl)-1H-pyrazol-4-yl)methyl)-N1,N2-dimethylethane-1,2-diamine] | 361.1 nM
CNCCN(C)Cc1c[nH]nc1C1=CCC(COCC(F)(F)F)CC1 (stereo not shown) [compound 16, N1,N2-dimethyl-N1-((3-(4-((2,2,2-trifluoroethoxy)methyl)cyclohex-1-en-1-yl)-1H-pyrazol-4-yl)methyl)ethane-1,2-diamine] | 839.3 nM
CNCCN(C)Cc1c[nH]nc1C1CCC(OCCCOC)C2(CCCC2)C1 (mixture of isomers) [compound 19, N1-((3-(10-(3-methoxypropoxy)spiro[4.5]decan-7-yl)-1H-pyrazol-4-yl)methyl)-N1,N2-dimethylethane-1,2-diamine dihydrochloride] | 440.3 nM
CNCCN(C)Cc1c[nH]nc1[C@H]1CC[C@H](COCC(F)(F)F)CC1 [compound 24, N1,N2-dimethyl-N1-((3-((1r,4r)-4-((2,2,2-trifluoroethoxy)methyl)cyclohexyl)-1H-pyrazol-4-yl)methyl)ethane-1,2-diamine] | 161.6 nM

Continued, values first:

PRMT1 RGG ICW EC30 | Structure (SMILES)
57.96 nM | CNCCN(C)Cc1ncsc1[C@H]1CC[C@@]2(CC1)CC(C)(C)CO2 [compound 83]
193.1 nM | Cc1[nH]nc(C2CCC3(CC2)CC(C)(C)CO3)c1CN(C)CCN (stereo not shown) [compound 59]
15.26 nM | CNCCN(C)Cc1c[nH]nc1[C@H]1CC[C@@]2(CC1)COC(C)(C)C2 [compound 126, N1-((3-((5r,8r)-3,3-dimethyl-2-oxaspiro[4.5]decan-8-yl)-1H-pyrazol-4-yl)methyl)-N1,N2-dimethylethane-1,2-diamine]
209 nM | CNCCN(C)Cc1c[nH]nc1C1CCC(C)(C)[C@H](COCCCOC)C1 (stereo partly drawn) [compound 30, {2-[({3-[(3R)-3-[(3-methoxypropoxy)methyl]-4,4-dimethylcyclohexyl]-1H-pyrazol-4-yl}methyl)(methyl)amino]ethyl}(methyl)amine]
95.53 nM | CNCCN(C)Cc1nc(C)sc1[C@H]1CC[C@]2(CC1)CC(C)(C)CO2 [compound 99]
14.88 nM | CNCCN(C)Cc1c[nH]nc1C1CCC2(CC1)CC(C)(C)OC2=O (stereo not shown) [compound 125]
6.96 nM | CNCCN(C)Cc1scnc1[C@H]1CC[C@@]2(CC1)CC(C)(C)CO2 [compound 62]
453.6 nM | CCOC[C@@H]1CC(c2n[nH]cc2CN(C)CCNC)CCC1(C)C (stereo partly drawn) [compound 31, {2-[({3-[(3R)-3-(ethoxymethyl)-4,4-dimethylcyclohexyl]-1H-pyrazol-4-yl}methyl)(methyl)amino]ethyl}(methyl)amine]
446.7 nM | CN(CCN)Cc1nn(C)cc1[C@H]1CC[C@]2(CC1)CC(C)(C)CO2 [compound 102]
117.5 nM | CCOCC1(COCC)CCC(c2n[nH]cc2CN(C)CCN(C)C)CC1 [compound 121]
40.32 nM | CNCCN(C)Cc1c(C)[nH]nc1[C@H]1CC[C@@]2(CC1)CC(C)(C)CO2 [compound 57]
40.81 nM | CCC1(CC)C[C@]2(CC[C@H](c3n[nH]cc3CN(C)CCNC)CC2)OC1=O [compound 33, (5s,8s)-3,3-diethyl-8-(4-((methyl(2-(methylamino)ethyl)amino)methyl)-1H-pyrazol-3-yl)-1-oxaspiro[4.5]decan-2-one]
95.94 nM | CNCCN(C)Cc1nn(C)cc1[C@H]1CC[C@@]2(CC1)CC(C)(C)CO2 [compound 81]
>10000 nM | CNCCN(C)Cc1c(C)noc1[C@H]1CC[C@]2(CC1)CC(C)(C)CO2 [compound 114]
65.46 nM | CCC1(CC)C[C@]2(CC[C@@H](c3n[nH]cc3CN(C)CCNC)CC2)OC1=O [compound 34, (5r,8r)-3,3-diethyl-8-(4-((methyl(2-(methylamino)ethyl)amino)methyl)-1H-pyrazol-3-yl)-1-oxaspiro[4.5]decan-2-one]
373.6 nM | Cc1[nH]nc([C@H]2CC[C@]3(CC2)CC(C)(C)CO3)c1CN(C)CCN [compound 52, N1-((3-((5r,8r)-3,3-dimethyl-1-oxaspiro[4.5]decan-8-yl)-5-methyl-1H-pyrazol-4-yl)methyl)-N1-methylethane-1,2-diamine]
8.48 nM | CNCCN(C)Cc1c[nH]nc1[C@H]1CC[C@]2(CCCCO2)CC1 [compound 127, methyl([2-[methyl([3-[(6s,9r)-1-oxaspiro[5.5]undecan-9-yl]-1H-pyrazol-4-yl]methyl)amino]ethyl])amine bistrifluoroacetic acid salt]
61.59 nM | CN(CCN)Cc1nn(C)cc1[C@H]1CC[C@@]2(CC1)CC(C)(C)CO2 [compound 80]
>10000 nM | CNCCN(C)Cc1c(Cl)ncn1[C@H]1CC[C@]2(CC1)CC(C)(C)CO2 [compound 97]
53.11 nM | CNCCN(C)Cc1nc(C)sc1[C@H]1CC[C@@]2(CC1)CC(C)(C)CO2 [compound 77]
